# Experimental data: ChEMBL document CHEMBL5244273, “Tuberculosis: An Overview of the Immunogenic Response, Disease Progression, and Medicinal Chemistry Efforts in the Last Decade toward the Development of Potential Drugs for Extensively Drug-Resistant Tuberculosis Strains” (J Med Chem, 2021)
# Key:
# [1] = test system: Mycobacterium tuberculosis; test: Antimycobacterial activity against Mycobacterium tuberculosis H37Rv; assay type: functional
# [2] = test system: Mycobacterium tuberculosis; test: Antimycobacterial activity against Mycobacterium tuberculosis H37Rv assessed as inhibition of bacterial growth by resazurin dye based fluorescence analysis; assay type: functional
smiles,measurement,setting,value
Cc1ccc(-c2nnc(S)o2)cc1,MIC,[1],9.6 µg/mL
COC(=O)c1c(NC(=O)c2c(F)c(F)c(F)c(F)c2F)sc2c1CCCCC2,MIC,[1],1 µg/mL
Sc1nnc(-c2ccccc2Cl)o1,MIC,[1],21.2 µg/mL
Sc1nnc(-c2ccc(Cl)cc2)o1,MIC,[1],5.3 µg/mL
Fc1ccc(-c2nnc(S)o2)cc1,MIC,[1],> 25 µg/mL
Sc1nnc(-c2ccccc2Br)o1,MIC,[1],> 25 µg/mL
CCOC(=O)c1c(NC(=O)c2c(F)c(F)c(F)c(F)c2F)sc(C(N)=O)c1C,MIC,[1],0.5 µg/mL
S=c1[nH]nc(C2CCCCC2)o1,MIC,[1],> 25 µg/mL
CCOC(=O)c1c(NC(=O)c2c(F)c(F)c(F)c(F)c2F)sc2c1CCCCC2,MIC,[1],1.9 µg/mL
Nc1ccsc1-c1nnc(S)o1,MIC,[1],21.3 µg/mL
NC(=O)N1N=C(c2ccc3oc(N)nc3c2)CC1c1cccs1 (configuration not stated),MIC,[1],6.25 µg/mL
CCNS(=O)(=O)c1ccc(-c2nnn(Cc3ccncc3)n2)cc1,MIC,[2],0.1 µM
C[C@@H](O)CNS(=O)(=O)c1ccc(-c2nnn(Cc3ccc(F)cn3)n2)cc1,MIC,[2],0.1 µM
O=[N+]([O-])c1ccc(-c2nnc(S)o2)cc1,MIC,[1],3.1 µg/mL
CNS(=O)(=O)c1ccc(-c2nnn(Cc3ccc(F)cc3)n2)cc1,MIC,[2],0.1 µM
CC(=O)N1/C(=C/c2cccc(-c3cnn(C)c3)c2)C(=O)c2ccccc21,MIC90,[1],4.93 µM
same,MIC99,[1],5.61 µM
CC(=O)N1/C(=C/c2ccc(Oc3ccc(Cl)cc3)cc2)C(=O)c2cc(Cl)ccc21,MIC90,[1],6.02 µM
same,MIC99,[1],6.87 µM
NC(=O)N1N=C(c2ccc3oc(S)nc3c2)CC1c1cccs1 (configuration not stated),MIC,[1],12.5 µg/mL
O=S(=O)(NCC(O)CO)c1ccc(-c2nnn(Cc3ccc(F)cc3)n2)cc1 (configuration not stated),MIC,[2],0.1 µM
CC(=O)N1N=C(c2ccc3oc(N)nc3c2)CC1c1cccs1 (configuration not stated),MIC,[1],6.25 µg/mL
CC(=O)N1N=C(c2ccc3oc(NC(=O)c4ccccc4)nc3c2)CC1c1cccs1 (configuration not stated),MIC,[1],6.25 µg/mL
O=S(=O)(NCCO)c1ccc(-c2nnn(CC3CCCCO3)n2)cc1 (configuration not stated),MIC,[2],0.1 µM
CC(=O)N1N=C(c2ccc3oc(-c4ccccn4)nc3c2)CC1c1cccs1 (configuration not stated),MIC,[1],25 µg/mL
COc1ccccc1-c1nc2cc(C3=NN(C(C)=O)C(c4cccs4)C3)ccc2o1 (configuration not stated),MIC,[1],25 µg/mL
CC(=O)N1/C(=C/c2ccc(Oc3ccc(Cl)cc3)cc2)C(=O)c2ccccc21,MIC90,[1],6.2 µM
same,MIC99,[1],8.4 µM
O=S(=O)(NC(CO)CO)c1ccc(-c2nnn(Cc3ccc(F)cc3)n2)cc1,MIC,[2],0.1 µM
CC(=O)N1/C(=C/c2ccc(OCc3ccccc3)cc2)C(=O)c2ccccc21,MIC90,[1],1.89 µM
same,MIC99,[1],2.58 µM
O=S(=O)(NCCO)c1ccc(-c2nnn(Cc3ccc(F)cc3)n2)cc1,MIC,[2],0.1 µM
CC(=O)N1/C(=C/c2ccc(-c3ccccc3)cc2)C(=O)c2cc(C)ccc21,MIC90,[1],> 20 µM
same,MIC99,[1],> 20 µM
CC(=O)N1N=C(c2ccc3oc(S)nc3c2)CC1c1cccs1 (configuration not stated),MIC,[1],6.25 µg/mL
COC(=O)c1c(NC(=O)c2ccc(C)cc2)sc2c1CCCCC2,MIC,[1],> 20.2 µg/mL
C[C@@H](O)CNS(=O)(=O)c1ccc(-c2nnn(Cc3ccc(F)cc3)n2)cc1,MIC,[2],0.1 µM
CCc1c(C)sc(NC(=O)c2c(F)c(F)c(F)c(F)c2F)c1C(=O)OC(C)C,MIC,[1],1 µg/mL
CC(=O)N1/C(=C/c2ccc(-c3ccsc3)cc2)C(=O)c2ccccc21,MIC90,[1],0.336 µM
same,MIC99,[1],0.6 µM
N#Cc1ccc(Cn2nnc(-c3ccc(S(=O)(=O)NCCO)cc3)n2)cc1,MIC,[2],0.1 µM
CCc1ccc(Cn2nnc(-c3ccc(S(=O)(=O)NCCO)cc3)n2)cc1,MIC,[2],0.1 µM
Sc1nnc(-c2ccccc2I)o1,MIC,[1],15.2 µg/mL
CCCC(=O)Nc1nc2cc(C3=NN(C(C)=O)C(c4cccs4)C3)ccc2o1 (configuration not stated),MIC,[1],12.5 µg/mL
N#Cc1ccc(Cn2nnc(-c3ccc(S(=O)(=O)NCCO)cc3)n2)nc1,MIC,[2],0.1 µM
CC(=O)Nc1nc2cc(C3=NN(C(C)=O)C(c4cccs4)C3)ccc2o1 (configuration not stated),MIC,[1],25 µg/mL
O=S(=O)(NCCO)c1ccc(-c2nnn(Cc3ccncn3)n2)cc1,MIC,[2],0.1 µM
O=S(=O)(NCCO)c1ccc(-c2nnn(CC3CCC(F)(F)CC3)n2)cc1,MIC,[2],0.1 µM
CC(=O)N1/C(=C/c2ccc(-c3cnn(C)c3)cc2)C(=O)c2ccccc21,MIC90,[1],3.16 µM
same,MIC99,[1],3.66 µM
C[C@@H](O)CNS(=O)(=O)c1ccc(-c2nnn(Cc3ccncc3)n2)cc1,MIC,[2],0.1 µM
CC(=O)N1N=C(c2ccc3oc(-c4ccccc4Cl)nc3c2)CC1c1cccs1 (configuration not stated),MIC,[1],25 µg/mL
Cc1c(C(N)=O)sc(NC(=O)c2c(F)c(F)c(F)c(F)c2F)c1C(=O)O,MIC,[1],78.4 µg/mL
Sc1nnc(-c2ccc(-c3ccccc3)cc2)o1,MIC,[1],> 25 µg/mL
COC(=O)c1c(NC(=O)c2ccccc2F)sc2c1CCCCC2,MIC,[1],20.2 µg/mL
O=S(=O)(NC(CO)CO)c1ccc(-c2nnn(Cc3ccncc3)n2)cc1,MIC,[2],0.1 µM
CC(=O)N1N=C(c2ccc3oc(C(=O)c4ccccc4)nc3c2)CC1c1cccs1 (configuration not stated),MIC,[1],50 µg/mL
COC(=O)c1c(NC(=O)c2c(F)c(F)c(F)c(F)c2F)sc(-c2ccc(Cl)cc2)c1C(=O)OC,MIC,[1],3.5 µg/mL
CC(=O)N1N=C(c2ccc3oc(NC(=O)c4cccc(Cl)c4)nc3c2)CC1c1cccs1 (configuration not stated),MIC,[1],12.5 µg/mL
COc1cc(-c2nc3cc(C4=NN(C(C)=O)C(c5cccs5)C4)ccc3o2)cc(OC)c1OC (configuration not stated),MIC,[1],25 µg/mL
Sc1nnc(-c2ccc(Br)cc2)o1,MIC,[1],> 25 µg/mL
COC(=O)c1sc(NC(=O)c2c(F)c(F)c(F)c(F)c2F)c(C(=O)ON)c1C,MIC,[1],4.9 µg/mL
CC(=O)N1/C(=C/c2cccc(-c3ccccc3)c2)C(=O)c2ccccc21,MIC90,[1],4.49 µM
same,MIC99,[1],4.94 µM
CC(=O)N1N=C(c2ccc3oc(-c4ccccc4)nc3c2)CC1c1cccs1 (configuration not stated),MIC,[1],25 µg/mL
CNS(=O)(=O)c1ccc(-c2nnn(Cc3ccncc3)n2)cc1,MIC,[2],0.1 µM
Oc1cc(O)cc(-c2nnc(S)o2)c1,MIC,[1],21 µg/mL
COc1cccc(-c2nc3cc(C4=NN(C(C)=O)C(c5cccs5)C4)ccc3o2)c1 (configuration not stated),MIC,[1],25 µg/mL
CCOC(=O)c1sc(NC(=O)c2c(F)c(F)c(F)c(F)c2F)c(C(=O)OCC)c1C,MIC,[1],7.1 µg/mL
O=[N+]([O-])c1ccc([N+](=O)[O-])c(-c2nnc(S)o2)c1,MIC,[1],6.7 µg/mL
Cc1nccc(Cn2nnc(-c3ccc(S(=O)(=O)NCCO)cc3)n2)n1,MIC,[2],0.1 µM
O=S(=O)(NCCO)c1ccc(-c2nnn(Cc3ccc(C(F)F)cc3)n2)cc1,MIC,[2],0.1 µM
O=[N+]([O-])c1ccc(F)c(-c2nnc(S)o2)c1,MIC,[1],> 25 µg/mL
FC(F)(F)c1ccc(-c2nnc(S)o2)cc1,MIC,[1],> 25 µg/mL
COC(=O)c1c(NC(=O)c2c(F)c(F)c(F)c(F)c2F)sc2c1CCC2,MIC,[1],2.1 µg/mL
C[C@H](O)CNS(=O)(=O)c1ccc(-c2nnn(Cc3ccc(F)cc3)n2)cc1,MIC,[2],0.1 µM
O=S(=O)(NCCO)c1ccc(-c2nnn(Cc3ncc(F)cc3F)n2)cc1,MIC,[2],0.1 µM
Oc1ccc(-c2nnc(S)[nH]2)cc1O,MIC,[1],10.5 µg/mL
NOC(=O)c1c(NC(=O)c2c(F)c(F)c(F)c(F)c2F)sc2c1CCCCC2,MIC,[1],15.3 µg/mL
COc1ccc(-c2nnc(S)o2)cc1,MIC,[1],20.8 µg/mL
CC(=O)N1N=C(c2ccc3oc(-c4ccncc4)nc3c2)CC1c1cccs1 (configuration not stated),MIC,[1],25 µg/mL
CC(=O)N1/C(=C/c2cccc(-c3ccc(OC(F)(F)F)cc3)c2)C(=O)c2ccccc21,MIC90,[1],> 20 µM
same,MIC99,[1],> 20 µM
CC(=O)N1N=C(c2ccc3oc(NC(=O)c4ccccc4Cl)nc3c2)CC1c1cccs1 (configuration not stated),MIC,[1],25 µg/mL
COc1ccc(-c2nc3cc(C4=NN(C(C)=O)C(c5cccs5)C4)ccc3o2)cc1 (configuration not stated),MIC,[1],12.5 µg/mL
Cc1cccc(Cn2nnc(-c3ccc(S(=O)(=O)NCCO)cc3)n2)n1,MIC,[2],0.1 µM
CC(=O)N1N=C(c2ccc3oc(-c4cccnc4)nc3c2)CC1c1cccs1 (configuration not stated),MIC,[1],25 µg/mL
O=S(=O)(NCCO)c1ccc(-c2nnn(Cc3ccc(Cl)cc3)n2)cc1,MIC,[2],0.1 µM
CC(=O)N1N=C(c2ccc3oc(NC(=O)C(C)C)nc3c2)CC1c1cccs1 (configuration not stated),MIC,[1],25 µg/mL
CC(=O)N1/C(=C/c2ccc(-c3ccc(OC(F)(F)F)cc3)cc2)C(=O)c2cc(Cl)ccc21,MIC90,[1],> 20 µM
same,MIC99,[1],> 20 µM
CC(=O)N1/C(=C/c2ccc(-c3ccc(C(F)(F)F)cc3)cc2)C(=O)c2ccccc21,MIC90,[1],2.65 µM
same,MIC99,[1],4.3 µM
O=S(=O)(NCCO)c1ccc(-c2nnn(Cc3ccc(Cl)cn3)n2)cc1,MIC,[2],0.1 µM
C[C@@H](O)CNS(=O)(=O)c1ccc(-c2nnn(CC3CCC(F)(F)CC3)n2)cc1,MIC,[2],0.1 µM
CC(=O)N1/C(=C/c2cccc(-c3ccc(C(F)(F)F)cc3)c2)C(=O)c2ccccc21,MIC90,[1],11.6 µM
same,MIC99,[1],17.5 µM
CC(=O)N1/C(=C/c2cccc(-c3ccsc3)c2)C(=O)c2ccccc21,MIC90,[1],3.19 µM
same,MIC99,[1],3.34 µM
CC(=O)N1/C(=C/c2cccc(-c3ccc(F)cc3)c2)C(=O)c2ccccc21,MIC90,[1],5.1 µM
same,MIC99,[1],5.66 µM
COc1ccc(Cn2nnc(-c3ccc(S(=O)(=O)NCCO)cc3)n2)cc1,MIC,[2],0.1 µM
CC(=O)N1/C(=C/c2ccc(-c3cnc4ccccc4c3)cc2)C(=O)c2ccccc21,MIC90,[1],0.649 µM
same,MIC99,[1],0.736 µM
NOC(=O)c1c(NC(=O)c2c(F)c(F)c(F)c(F)c2F)sc2c1CCC2,MIC,[1],10.6 µg/mL
COc1ccccc1C(=O)Nc1nc2cc(C3=NN(C(C)=O)C(c4cccs4)C3)ccc2o1 (configuration not stated),MIC,[1],25 µg/mL
CCn1cc(C(=O)O)c(=O)c2cc(F)c(-n3cccc3)cc21 [IRLOXACIN],MIC50,[1],8 µg/mL
